pIC50: −log10 of the molar value.
biological target: T1, SYK kinase (Homo sapiens, UniProt P43405); experiment: In vitro Syk inhibition assay (Kinase TK HTRF, Cisbio); format: biochemical; conditions: full length SYK purified from a baculovirus system; ATP at least twice the Km; room temperature; average of triplicate; read-out: IC50: Concentration inhibiting 50% of protein kinase
T1 construct: SYK kinase was purified as a full length protein in a baculovirus system near homogeneity; made in house
Method: Protocol Inhibition Assays.
SYK kinase was purified as a full length protein in a baculovirus system near homogeneity. All kinase assays were performed with the Kinase TK (tyrosine kinase) HTRF (Homogeneous Time Resolved Fluorescence) assay developed by Cisbio international. These assays were carried out at room temperature in 96-wells half-area white plates in a final volume of 25 μl of kinase buffer (10 mM MgCl2; 2 mM MnCl2; 50 mM Sodium-HEPES pH 7.8; BRIJ-35 0.01%, 1 μM substrate) containing ATP at a concentration of at least twice the Km for each enzyme and an appropriate amount of recombinant enzyme to ensure a linear reaction rate. Reactions were initiated upon introduction of the enzyme and terminated with the addition of one reaction volume (25 μl) of HTRF detection buffer. Plates were incubated for one hour at room temperature and the time resolved Fluorescence resonance energy transfer signal was measured in a Pherastar FS microplate reader (BMG Labtech). All data are the average of triplicate results with a standard deviation <10%.

| Compound | pIC50 |
| --- | --- |
| Cc1ccnc(Nc2cc(CN(C)C)cc(-c3cnc(N4CCNC(=O)C4(C)C)o3)c2)n1 [Compound 044, 4-{5-[3-Dimethylaminomethyl-5-(4-methyl-pyrimidin-2-ylamino)-phenyl]-oxazol-2-yl}-3,3-dimethyl-piperazin-2-one] | 6.00 to 7.00 |
| CC(C)C1C(=O)NCCN1c1ncc(-c2cccc(Nc3nccc(N4CCN(C)CC4)n3)c2)o1 (stereo not drawn) [Compound 035, 3-Isopropyl-4-(5-{3-[4-(4-methyl-piperazin-1-yl)-pyrimidin-2-ylamino]-phenyl}-oxazol-2-yl)-piperazin-2-one] | 5.00 to 6.00 |
| Cc1ccnc(Nc2cccc(-c3cnc(N4CCNC(=O)[C@@H]4C(C)C)o3)c2)n1 [Compound 039, (S)-3-Isopropyl-4-{5-[3-(4-methyl-pyrimidin-2-ylamino)-phenyl]-oxazol-2-yl}-piperazin-2-one] | 6.00 to 7.00 |
| CC(C)C1C(=O)NCCN1c1ncc(-c2cccc(Nc3nccc(N4CCOCC4)n3)c2)o1 (stereo not drawn) [Compound 033, 3-Isopropyl-4-{5-[3-(4-morpholin-4-yl-pyrimidin-2-ylamino)-phenyl]-oxazol-2-yl}-piperazin-2-one] | 5.00 to 6.00 |
| CC(C)C1C(=O)NCCN1c1ncc(-c2cccc(Nc3nccc(N4CCCC4)n3)c2)o1 (stereo not drawn) [Compound 034, 3-Isopropyl-4-{5-[3-(4-pyrrolidin-1-yl-pyrimidin-2-ylamino)-phenyl]-oxazol-2-yl}-piperazin-2-one] | 5.00 to 6.00 |
| CC1C(=O)NCCN1c1ncc(-c2cccc(Nc3nccc(N4CCOCC4)n3)c2)o1 (stereo not drawn) [Compound 027, 3-Methyl-4-{5-[3-(4-morpholin-4-yl-pyrimidin-2-ylamino)-phenyl]-oxazol-2-yl}-piperazin-2-one] | 6.00 to 7.00 |
| CCCc1cnc(Nc2cccc(-c3cnc(N4CCNC(=O)C4C)o3)c2)nc1 (stereo not drawn) [Compound 006, 3-Methyl-4-{5-[3-(5-propyl-pyrimidin-2-ylamino)-phenyl]-oxazol-2-yl}-piperazin-2-one] | 5.00 to 6.00 |
| Cc1ccnc(Nc2cc(CN3CCCC3)cc(-c3cnc(N4CCNC(=O)C4(C)C)o3)c2)n1 [Compound 045, 3,3-Dimethyl-4-{5-[3-(4-methyl-pyrimidin-2-ylamino)-5-pyrrolidin-1-ylmethyl-phenyl]-oxazol-2-yl}-piperazin-2-one] | 6.00 to 7.00 |
| CCc1cnc(Nc2cccc(-c3cnc(N4CCNC(=O)C4C)o3)c2)nc1 (stereo not drawn) [Compound 016, 4-{5-[3-(5-Ethyl-pyrimidin-2-ylamino)-phenyl]-oxazol-2-yl}-3-methyl-piperazin-2-one] | 5.00 to 6.00 |
| Cc1ccnc(Nc2cccc(-c3cnc(N4CCNC(=O)[C@H]4C(C)C)o3)c2)n1 [Compound 040, (R)-3-Isopropyl-4-{5-[3-(4-methyl-pyrimidin-2-ylamino)-phenyl]-oxazol-2-yl}-piperazin-2-one] | ≥ 7.00 |
| CC(C)C1C(=O)NCCN1c1ncc(-c2cccc(Nc3nccc(C(F)(F)F)n3)c2)o1 (stereo not drawn) [Compound 012, 3-Isopropyl-4-{5-[3-((4-trifluoromethyl)-pyrimidin-2-ylamino)-phenyl]-oxazol-2-yl}-piperazin-2-one] | ≥ 7.00 |
| CN1CCN(c2ccnc(Nc3cccc(-c4cnc(N5CCNC(=O)C5(C)C)o4)c3)n2)CC1 [Compound 031, 3,3-Dimethyl-4-(5-{3-[4-(4-methyl-piperazin-1-yl)-pyrimidin-2-ylamino]-phenyl}-oxazol-2-yl)-piperazin-2-one] | 5.00 to 6.00 |

More lines, now with the values ahead:

| pIC50 | Compound |
| --- | --- |
| ≥ 7.00 | CC(C)c1ccnc(Nc2cccc(-c3cnc(N4CCNC(=O)C4C)o3)c2)n1 (stereo not drawn) [Compound 021, 4-{5-[3-(4-Isopropyl-pyrimidin-2-ylamino)-phenyl]-oxazol-2-yl}-3-methyl-piperazin-2-one] |
| ≥ 7.00 | COc1ccnc(Nc2cccc(-c3cnc(N4CCNC(=O)C4(C)C)o3)c2)n1 [Compound 026, 4-{5-[3-(4-Methoxy-pyrimidin-2-ylamino)-phenyl]-oxazol-2-yl}-3,3-dimethyl-piperazin-2-one] |
| ≥ 7.00 | Cc1ccnc(Nc2cccc(-c3cnc(N4CCNC(=O)C4C(C)C)o3)c2)n1 (stereo not drawn) [Compound 003, 3-Isopropyl-4-{5-[3-(4-methyl-pyrimidin-2-ylamino)-phenyl]-oxazol-2-yl}-piperazin-2-one] |
| ≥ 7.00 | CC1C(=O)NCCN1c1ncc(-c2cccc(Nc3nccc(C(F)(F)F)n3)c2)o1 (stereo not drawn) [Compound 009, 3-Methyl-4-{5-[3-((4-trifluoromethyl)-pyrimidin-2-ylamino)-phenyl]-oxazol-2-yl}-piperazin-2-one] |
| ≥ 7.00 | CC1C(=O)NCCN1c1ncc(-c2cccc(Nc3nccc(-c4cccs4)n3)c2)o1 (stereo not drawn) [Compound 010, 3-Methyl-4-{5-[3-(4-thiophen-2-yl-pyrimidin-2-ylamino)-phenyl]-oxazol-2-yl}-piperazin-2-one] |
| ≥ 7.00 | CCc1ccnc(Nc2cccc(-c3cnc(N4CCNC(=O)C4C)o3)c2)n1 (stereo not drawn) [Compound 004, 4-{5-[3-(4-Ethyl-pyrimidin-2-ylamino)-phenyl]-oxazol-2-yl}-3-methyl-piperazin-2-one] |
